Assay results published in patent US20240139205A1, “MODULATORS OF ARALAR FOR TREATING NEUROLOGICAL DISORDERS” (Universite de Lausanne, priority 2020, published 2024).

Key:
WT mice = experiment: three-chamber test (sociability) in WT mice; assay type: in vivo, mouse; conditions: acute diazepam i.p. 0.2 mg/ml at 1% of bodyweight, 30 min prior to test
Protocol: Sociability and social novelty were evaluated using the three-chamber test previously described (Crawley (2007), Brain Pathology 17(4), 448-459). Briefly, the set-up consisted of a rectangular non-transparent Plexiglas box divided into three compartments, separated by two partitions (each compartment: 30×19×21 cm). These partitions contained a small passage in the middle (8×7 cm; that can be sealed with small guillotine doors), which allowed the mouse to transition between adjacent compartments. During the acclimation phase, mice were allowed to explore the empty central compartment for 5 min. At the start of the test, both sliding doors were closed and each of the outer compartments were equipped with a wired cage (10 cm diameter, 20 cm high), one containing an object (50 ml Falcon Tube or a glue stick) and the other containing a mouse (i.e. stranger 1). Holding cages were used to avoid inter-male fighting but allow visual and olfactory contact between mice. […] Mice were recorded with a camera and were tracked with Ethovision software (Noldus, Wageningen, The Netherlands). Time spent in close proximity (<2 cm) to the holding cages was recorded. Preference index was calculated as: Time stranger 1/(Time stranger 1+Time object) and Timestranger 2/(Timestranger 1+Timestranger 2) for sociability and social memory/social novelty, respectively. […]

Cyfip^85.1/+ flies = experiment: competition for food assay (total number of social events) in Cyfip haploinsufficient flies; assay type: in vivo, Drosophila; conditions: Cyfip^85.1/+ flies; Diazepam 50 μM in food, 1 day
Protocol: Experiments were performed with socially experienced, 3-7 days-old male flies. Groups of eight males from the same genotype were anesthetized 24 h prior to the assay and placed in vials with food. On the day of the assay, the males were transferred without anesthesia to an empty vial and were deprived of food for 90 minutes, after which they were exposed to a food droplet and given 2 minutes to acclimate to this disturbance. The flies were then observed simultaneously for an additional 2 minutes, and the total number of social events was scored. Monitored social events were i.e. approaches, lunges, tussles, wing threat and the initiation of courtship. Of note, one interaction involving two or more flies was counted as one social event in total (Zwarts (2011), PNAS 108, 17070-17075. The behavioral assays were conducted in a behavioral chamber (25° C., 60-70% humidity) between 8 a.m. and 11 a.m. Statistics were calculated using a one-way fixed effect ANOVA model, and Kruskal Wallis test in combination with Dunn's multiple comparison test.
Example 8. GABA augmentation fully normalizes the behavioral abnormalities of Cyfip^85.1/+ flies. GABA levels were augmented in Cyfip^85.1/+ flies in three distinct ways: flies were fed either GABA, DL-2,4-diaminobutyric acid (DABA) which is a GABA-transaminase inhibitor and/or a GABA reuptake inhibitor or the anticonvulsant valproic acid (VPA) which induces GABA release (Chateauvieux (2010), Journal of biomedicine & biotechnology 2010; Coghlan (2012), Neurosci Biobehav Rev 36, 2044-2055; Reynolds (2007), Current medicinal chemistry 14, 2799-2812). All compounds were purchased from Sigma-Aldrich and were used as described before (Kanellopoulos (2012), J Neurosci. 32(38):13111-24; Zwarts (2011), PNAS 108, 17070-17075). In brief, the drugs were dissolved as per the manufacturer's instructions and used at the following concentrations: GABA at 50 μM, DABA 100 μM, Valproic acid (VPA) at 1 mM and Diazepam at 50 μM. Compounds in solution were mixed with Formula 4-24® Instant Drosophila Medium (blue food) in water. Approximately 50-60 adult flies were placed in plastic vials containing 500 μl of each solution on top of an agar matrix and allowed to feed ad libitum before behaviour analysis. Vehicle treatment consisted of solvent added to blue food alone.
Example 16. Drug screening to identify compounds that ameliorate social behavior deficits in flies with Cyfip haploinsufficiency. Control (w1118) or CYFIP (Cyfip^85.1/+) flies were treated, i.e. fed, with various compounds from the Prestwick Chemical Library® as described in Examples 8 and 15. All compounds were used at a concentration of 50 μM. The total number of social interactions was analyzed in a competition for food assay at various time-points (1, 2 or 5 days) of treatment with the compound or vehicle controls as described in Example 2.

Cyfip1+/− mice = experiment: three-chamber test (sociability and social novelty) in Cyfip1+/− mice; assay type: in vivo, mouse; conditions: for social preference deficit (sociability index, stranger 1 vs object): acute diazepam i.p. 0.2 mg/ml at 1% of bodyweight, 30 min prior to test
Protocol: Sociability and social novelty were evaluated using the three-chamber test previously described (Crawley (2007), Brain Pathology 17(4), 448-459). Briefly, the set-up consisted of a rectangular non-transparent Plexiglas box divided into three compartments, separated by two partitions (each compartment: 30×19×21 cm). These partitions contained a small passage in the middle (8×7 cm; that can be sealed with small guillotine doors), which allowed the mouse to transition between adjacent compartments. During the acclimation phase, mice were allowed to explore the empty central compartment for 5 min. At the start of the test, both sliding doors were closed and each of the outer compartments were equipped with a wired cage (10 cm diameter, 20 cm high), one containing an object (50 ml Falcon Tube or a glue stick) and the other containing a mouse (i.e. stranger 1). Holding cages were used to avoid inter-male fighting but allow visual and olfactory contact between mice. During the sociability phase, the guillotine doors were removed and mice could freely explore the entire set-up for 10 min. It is expected from healthy mice that more interest is shown towards another mouse compared to an object. After 10 min, mice were placed into an empty housing cage, and the holding cage containing the object was replaced by a holding cage containing a novel mouse (i.e. stranger 2). During the next phase (social memory), the stranger 1 mouse has become familiar and it is expected that healthy mice show more interest towards the stranger 2 mouse compared to the stranger 1 mouse. The guillotine doors were removed and mice were allowed to explore the set-up for another 10 min. The location of the stranger 1 and stranger 2 mice was counterbalanced between animals and the box was cleaned with 70% EtOH solution after each animal. All stranger mice used were of the same sex as the tested mouse and had never been in contact with the test mice. Mice were recorded with a camera and were tracked with Ethovision software (Noldus, Wageningen, The Netherlands). Time spent in close proximity (<2 cm) to the holding cages was recorded. Preference index was calculated as: Time stranger 1/(Time stranger 1+Time object) and Timestranger 2/(Timestranger 1+Timestranger 2) for sociability and social memory/social novelty, respectively.
Diazepam, a GABA-A positive modulator, was purchased from Roche (Basel, Switzerland) (diazepam already dissolved in saline at a concentration of 5 mg/ml). Diazepam was further diluted in saline and adjusted to the dose of 0.2 mg/ml. Mice were first tested in the three-chamber test in control conditions. 72 h afterwards, all mice were administered intraperitoneally with diazepam at 1% of bodyweight 30 min prior to re-testing. […]

With `CN1C(=O)CN=C(c2ccccc2)c2cc(Cl)ccc21` [diazepam] the “social preference (sociability index)” value (WT mice) was “slight decrease in social preference”, the “social deficits (social events)” value (Cyfip^85.1/+ flies) was “restored the social deficits” and the “increase in social preference after treatment (within-subject, control vs diazepam-treated)” value (Cyfip1+/− mice; acute diazepam i.p.) was “approximately 50%”. The “social preference deficit (sociability index, stranger 1 vs object)” value (Cyfip1+/− mice) was “rescued the social preference deficit”, the “social preference deficit (sociability index, stranger 1 vs object)” value (Cyfip1+/− mice; listed as Diazepam) was “restores deficits in social behavior” and the “preference for the novel mouse (social novelty index)” value (Cyfip1+/− mice; acute diazepam i.p., genotype difference not statistically significant) was “slightly increase”.
